Results published in patent US9809625B2, “Immunomodulators” (BRISTOL-MYERS SQUIBB COMPANY, priority 2015, dated 2017).
Bridge positions count the residues as written; N and C are the ends. Square brackets hold non-standard residues; d marks the D form. Peptide text beside a SMILES is read from it. * marks the point of attachment. ξ: configuration not given here. Hyp = O=C(O)[C@@H]1C[C@@H](O)CN1; ξW = NC(Cc1c[nH]c2ccccc12)C(=O)O; NMeNle = CCCC[C@H](NC)C(=O)O; NMeA = CN[C@@H](C)C(=O)O; Dap = NC[C@H](N)C(=O)O; X1 = CN(C)C1CCN(*)CC1; X10 = c1ccc(OCCN*)cc1; X8 = c1ccc(SCCN*)cc1; NHCH2cPr = C1CC1CN*; X11 = OC1CCC(N*)CC1; X9 = OCCN(CCO)CCCN*

Biological target: T1, PD-1-Ig binding to PD-L1-TVMV-His (PD-L1-His) (Homo sapiens, UniProt Q9NZQ7)
T1 construct: hPDL1(19-239)-TVMV-His; TVMV protease cleavage site (C); made in house; host or cells: HEK293T
T1 sequence (Q9NZQ7 with tags, fused parts or gaps): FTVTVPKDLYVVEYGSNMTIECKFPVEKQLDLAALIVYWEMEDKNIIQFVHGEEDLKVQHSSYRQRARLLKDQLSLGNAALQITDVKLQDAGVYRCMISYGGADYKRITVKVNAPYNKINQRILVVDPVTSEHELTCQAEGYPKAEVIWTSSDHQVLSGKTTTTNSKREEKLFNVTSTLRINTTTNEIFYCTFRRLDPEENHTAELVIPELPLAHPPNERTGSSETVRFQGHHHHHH
Test: PD-1/PD-L1 Homogenous Time-Resolved Fluorescence (HTRF) binding assay
Conditions: PD-1-Ig (20 nM)/PD-L1-His (10 nM), range classes
From the text: Methods for Testing the Ability of Macrocyclic Peptides to Compete for the Binding of PD-1 to PD-L1 Using Homogenous Time-Resolved Fluorescence (HTRF) Binding Assays
The ability of the macrocyclic peptides of the present disclosure to bind to PD-L1 was investigated using a PD-1/PD-L1 Homogenous Time-Resolved Fluorescence (HTRF) binding assay.
Homogenous Time-Resolved Fluorescence (HTRF) Assays of Binding of Soluble PD-1 to Soluble PD-L1. Soluble PD-1 and soluble PD-L1 refers to proteins with carboxyl-end truncations that remove the transmembrane-spanning regions and are fused to heterologous sequences, specifically the Fc portion of the human immunoglobuling G sequence (Ig) or the hexahistidine epitope tag (His). All binding studies were performed in an HTRF assay buffer consisting of dPBS supplemented with 0.1% (w/v) bovine serum albumin and 0.05% (v/v) Tween-20. For the PD-1-Ig/PD-L1-His binding assay, inhibitors were pre-incubated with PD-L1-His (10 nM final) for 15 m in 4 μl of assay buffer, followed by addition of PD-1-Ig (20 nM final) in 1 μl of assay buffer and further incubation for 15 m. PD-L1 fusion proteins from either human, cynomologous macaques, mouse, or other species were used. HTRF detection was achieved using europium crypate-labeled anti-Ig monoclonal antibody (1 nM final) and allophycocyanin (APC) labeled anti-His monoclonal antibody (20 nM final). Antibodies were diluted in HTRF detection buffer and 5 μl was dispensed on top of binding reaction. The reaction was allowed to equilibrate for 30 minutes and signal (665 nm/620 nm ratio) was obtained using an EnVision fluorometer. Additional binding assays were established between PD-1-Ig/PD-L2-His (20 and 5 nM, respectively), CD80-His/PD-L1-Ig (100 and 10 nM, respectively) and CD80-His/CTLA4-Ig (10 and 5 nM, respectively). Binding/competition studies between biotinylated Compound No. 71 and human PD-L1-His were performed as follows. Macrocyclic peptide inhibitors were pre-incubated with PD-L1-His (10 nM final) for 60 minutes in 4 μl of assay buffer followed by addition of biotinylated Compound No. 71 (0.5 nM final) in 1 μl of assay buffer. Binding was allowed to equilibrate for 30 minutes followed by addition of europium crypated labeled Streptavidin (2.5 pM final) and APC-labeled anti-His (20 nM final) in 5 μl of HTRF buffer. The reaction was allowed to equilibrate for 30 m and signal (665 nm/620 nm ratio) was obtained using an EnVision fluorometer.
Recombinant Proteins. Carboxyl-truncated human PD-1 (amino acids 25-167) with a C-terminal human Ig epitope tag [hPD-1 (25-167)-3S-IG] and human PD-L1 (amino acids 18-239) with a C-terminal His epitope tag [hPD-L1(19-239)-tobacco vein mottling virus protease cleavage site (TVMV)-His] were expressed in HEK293T cells and purified sequentially by recombinant Protein A affinity chromatography and size exclusion chromatography. Human PD-L2-His (Sino Biologicals), CD80-His (Sino Biologicals), CTLA4-Ig (RnD Systems) were all obtained through commercial sources.

IC50 | SMILES
10 to 60 nM | CCCC[C@H]1C(=O)N(C)[C@@H](CCCC)C(=O)N[C@@H](CC(C)C)C(=O)N[C@H](C(=O)NCC(=O)NCCCN(CCO)CCO)CSCC(=O)N[C@@H](Cc2ccc(O)cc2)C(=O)N(C)[C@@H](C)C(=O)N[C@@H](CC(N)=O)C(=O)N2CCC[C@H]2C(=O)N[C@@H](CN)C(=O)N[C@@H](CC(C)C)C(=O)N2C[C@H](O)C[C@H]2C(=O)N[C@@H](Cc2c[nH]c3ccccc23)C(=O)NCC(=O)N[C@@H](Cc2c[nH]c3ccccc23)C(=O)N1C [Example 13107] ({CH2CO}-Y[NMeA]NP[Dap]L[Hyp]WGW[NMeNle][NMeNle]LCG-X9; thioether N-14)
10 to 60 nM | CCCC[C@H]1C(=O)N(C)[C@@H](CCCC)C(=O)N[C@@H](CC(C)C)C(=O)N[C@H](C(=O)NCC(=O)NCCOc2ccccc2)CSCC(=O)N[C@@H](Cc2ccc(O)cc2)C(=O)N(C)[C@@H](C)C(=O)N[C@@H](CC(N)=O)C(=O)N2CCC[C@H]2C(=O)N[C@@H](CN)C(=O)N[C@@H](CC(C)C)C(=O)N2C[C@H](O)C[C@H]2C(=O)N[C@@H](Cc2c[nH]c3ccccc23)C(=O)NCC(=O)N[C@@H](Cc2c[nH]c3ccccc23)C(=O)N1C [Example 13108] ({CH2CO}-Y[NMeA]NP[Dap]L[Hyp]WGW[NMeNle][NMeNle]LCG-X10; thioether N-14)

More lines, now with the values behind:

SMILES | IC50
CCCC[C@H]1C(=O)N(C)[C@@H](CCCC)C(=O)N[C@@H](CC(C)C)C(=O)N[C@H](C(=O)NCC(=O)NCCSc2ccccc2)CSCC(=O)N[C@@H](Cc2ccc(O)cc2)C(=O)N(C)[C@@H](C)C(=O)N[C@@H](CC(N)=O)C(=O)N2CCC[C@H]2C(=O)N[C@@H](CN)C(=O)N[C@@H](CC(C)C)C(=O)N2C[C@H](O)C[C@H]2C(=O)N[C@@H](Cc2c[nH]c3ccccc23)C(=O)NCC(=O)NC(Cc2c[nH]c3ccccc23)C(=O)N1C (stereo partly drawn) [Example 13101] ({CH2CO}-Y[NMeA]NP[Dap]L[Hyp]WG[ξW][NMeNle][NMeNle]LCG-X8; thioether N-14) | 10 to 60 nM
CCCC[C@H]1C(=O)N(C)[C@@H](CCCC)C(=O)N[C@@H](CC(C)C)C(=O)N[C@H](C(=O)NCC(=O)N2CCC(N(C)C)CC2)CSCC(=O)N[C@@H](Cc2ccc(O)cc2)C(=O)N(C)[C@@H](C)C(=O)N[C@@H](CC(N)=O)C(=O)N2CCC[C@H]2C(=O)N[C@@H](CN)C(=O)N[C@@H](CC(C)C)C(=O)N2C[C@H](O)C[C@H]2C(=O)N[C@@H](Cc2c[nH]c3ccccc23)C(=O)NCC(=O)NC(Cc2c[nH]c3ccccc23)C(=O)N1C (stereo partly drawn) [Example 13103] ({CH2CO}-Y[NMeA]NP[Dap]L[Hyp]WG[ξW][NMeNle][NMeNle]LCG-X1; thioether N-14) | 10 to 60 nM
CCCC[C@H]1C(=O)N(C)[C@@H](CCCC)C(=O)N[C@@H](CC(C)C)C(=O)N[C@H](C(=O)NCC(=O)NCC2CC2)CSCC(=O)N[C@@H](Cc2ccc(O)cc2)C(=O)N(C)[C@@H](C)C(=O)N[C@@H](CC(N)=O)C(=O)N2CCC[C@H]2C(=O)N[C@@H](CN)C(=O)N[C@@H](CC(C)C)C(=O)N2C[C@H](O)C[C@H]2C(=O)N[C@@H](Cc2c[nH]c3ccccc23)C(=O)NCC(=O)NC(Cc2c[nH]c3ccccc23)C(=O)N1C (stereo partly drawn) [Example 13104] ({CH2CO}-Y[NMeA]NP[Dap]L[Hyp]WG[ξW][NMeNle][NMeNle]LCG-NHCH2cPr; thioether N-14) | 10 to 60 nM
CCCC[C@H]1C(=O)N(C)[C@@H](CCCC)C(=O)N[C@@H](CC(C)C)C(=O)N[C@H](C(=O)NCC(=O)NC2CCC(O)CC2)CSCC(=O)N[C@@H](Cc2ccc(O)cc2)C(=O)N(C)[C@@H](C)C(=O)N[C@@H](CC(N)=O)C(=O)N2CCC[C@H]2C(=O)N[C@@H](CN)C(=O)N[C@@H](CC(C)C)C(=O)N2C[C@H](O)C[C@H]2C(=O)N[C@@H](Cc2c[nH]c3ccccc23)C(=O)NCC(=O)NC(Cc2c[nH]c3ccccc23)C(=O)N1C (stereo partly drawn) [Example 13106] ({CH2CO}-Y[NMeA]NP[Dap]L[Hyp]WG[ξW][NMeNle][NMeNle]LCG-X11; thioether N-14) | 10 to 60 nM
